The results in this text go back to patent US11542259B2, “Compounds for the treatment of kinase-dependent disorders” (Exelixis, Inc., priority 2018, dated 2023).

Type in all cases: cell-based
One test concerns the target Met (Homo sapiens (Human), UniProt P08581). In words: Met autophosphorylation ELISA in PC-3 cells. The note with it: cellular, HGF stimulated, read-out: c-Met IC50. How it is done:
PC-3 prostate cancer cells (ATCC #CRL-1435) were seeded at 4×10^4 cells/well onto 24-well plates (Greiner #662165), in DMEM (Thermo Fisher #11995-040) containing 10% FBS (Thermo Fisher #26140-079), 1% MEM NEAA (Thermo Fisher #11140-050), 1% GlutaMax (Thermo Fisher #35050-061), and 1% Penicillin Streptomycin (Thermo Fisher #15140-122). PC-3 cells were incubated at 37° C., 5% CO2 for 24 h and then starved for 3 h in serum-free medium. Test compounds were serially diluted to produce an 8-point dose curve in fresh serum-free medium to a final concentration of 0.3% DMSO (vehicle) and added to the cells and incubated for 1 h. Cells were then stimulated with 100 ng/mL recombinant human HGF (R&D Systems #294-HG-250) for 10 min, washed with cold PBS and immediately lysed with 130 μL of cold 1× lysis buffer [20 mM Tris, 137 mM sodium chloride, 2 mM EDTA, 10% glycerol, 1% NP-40 alternative, 1 mM activated sodium orthovanadate, 1 mM PefaBloc SC (Sigma-Aldrich #11429868001), protease/phosphatase inhibitor tablet (Thermo Fisher #A32959)]. Lysates were clarified by centrifugation and 100 μL/well added into the PathScan phospho-Met (panTyr) Sandwich ELISA (Cell Signaling Technology #7333). Assay was performed according to manufacturer's instructions. Positive control wells (100% activity) contained HGF-stimulated, DMSO-treated cell lysates. Negative control wells (0% activity) contained HGF-stimulated, reference inhibitor-treated cell lysates. IC50 values were calculated by nonlinear regression analysis using a 4-parameter logistic curve fit in ActivityBase XE (IDBS).

In the next test the target is KDR (Homo sapiens (Human), UniProt P35968). In words: KDR autophosphorylation ELISA in HUVEC cells. As to conditions: cellular, VEGF165 stimulated. How it is done:
Human umbilical vein endothelial cells or HUVEC (Lonza #C2519A) were seeded at 2×10^4 cells/well onto 96-well plates (Corning #3904), in EGM-2 growth medium (Lonza #CC-3162) containing 1% Penicillin Streptomycin (Thermo Fisher #15140-122). HUVEC cells were incubated at 37° C., 5% CO2 for 24 h and then starved for 24 h in serum-free EBM-2 basal medium (Lonza #CC-3156) containing 1% Penicillin Streptomycin. Test compounds were serially diluted to produce an 8-point dose curve in fresh serum-free medium to a final concentration of 0.3% DMSO (vehicle) and added to the cells and incubated for 1 h. Cells were then stimulated with 100 ng/mL recombinant human VEGF165 (R&D Systems #293-VE-500) for 5 min, washed with cold PBS, and immediately lysed with 130 μL of cold 1× lysis buffer [20 mM Tris, 137 mM sodium chloride, 2 mM EDTA, 10% glycerol, 1% NP-40 alternative, 1 mM activated sodium orthovanadate, 1 mM PefaBloc SC (Sigma-Aldrich #11429868001), protease/phosphatase inhibitor tablet (Thermo Fisher #A32959)]. Lysates were collected and 100 μL/well added into the human phospho-KDR DuoSet IC ELISA (R&D Systems #DYC1766-2). Assay was performed according to manufacturer's instructions and sample phospho-KDR concentrations were extrapolated using human phospho-KDR control (R&D Systems #841421) as a standard. Positive control wells (100% activity) contained VEGF165-stimulated, DMSO-treated cell lysates. Negative control wells (0% activity) contained non-stimulated cell lysates. IC50 values were calculated by nonlinear regression analysis using a 4-parameter logistic curve fit in ActivityBase XE (IDBS).

A further test has as its target AXL (Homo sapiens (Human), UniProt P30530). In words: AXL autophosphorylation ELISA in A-172 cells. The note with it: cellular, Gas6 stimulated. How it is done: A-172 glioblastoma cells (ATCC #CRL-1620) were seeded at 2.5×10^5 cells/well onto 24-well plates (Greiner #662165), in DMEM (Thermo Fisher #11995-040) containing 10% FBS (Thermo Fisher #26140-079), 1% MEM NEAA (Thermo Fisher #11140-050), 1% GlutaMax (Thermo Fisher #35050-061) and 1% Penicillin Streptomycin (Thermo Fisher #15140-122). A-172 cells were incubated at 37° C., 5% CO2 for 24 h and then starved for 24 h in serum-free medium. Test compounds were serially diluted to produce an 8-point dose curve in fresh serum-free medium to a final concentration of 0.3% DMSO (vehicle) and added to the cells and incubated for 1 h. Cells were then stimulated with 1 μg/mL recombinant human Gas6 (R&D Systems #885-GSB-500) for 15 min, washed with cold PBS and immediately lysed with 150 μL of cold 1× lysis buffer [20 mM Tris, 137 mM sodium chloride, 2 mM EDTA, 10% glycerol, 1% NP-40 alternative, 1 mM activated sodium orthovanadate, 1 mM PefaBloc SC (Sigma-Aldrich #11429868001), protease/phosphatase inhibitor tablet (Thermo Fisher #A32959)]. Lysates were collected and 100 μL/well added into the human phospho-AXL DuoSet IC ELISA (R&D Systems #DYC2228-2). Assay was performed according to manufacturer's instructions and sample phospho-AXL concentrations were extrapolated using human phospho-AXL control (R&D Systems #841645) as a standard. Positive control wells (100% activity) contained Gash-stimulated, DMSO-treated cell lysates. Negative control wells (0% activity) contained Gash-stimulated, reference inhibitor-treated cell lysates. IC50 values were calculated by nonlinear regression analysis using a 4-parameter logistic curve fit in ActivityBase XE (IDBS).

Molecules are shown by their SMILES.

Met, sequence (P08581 25-1390): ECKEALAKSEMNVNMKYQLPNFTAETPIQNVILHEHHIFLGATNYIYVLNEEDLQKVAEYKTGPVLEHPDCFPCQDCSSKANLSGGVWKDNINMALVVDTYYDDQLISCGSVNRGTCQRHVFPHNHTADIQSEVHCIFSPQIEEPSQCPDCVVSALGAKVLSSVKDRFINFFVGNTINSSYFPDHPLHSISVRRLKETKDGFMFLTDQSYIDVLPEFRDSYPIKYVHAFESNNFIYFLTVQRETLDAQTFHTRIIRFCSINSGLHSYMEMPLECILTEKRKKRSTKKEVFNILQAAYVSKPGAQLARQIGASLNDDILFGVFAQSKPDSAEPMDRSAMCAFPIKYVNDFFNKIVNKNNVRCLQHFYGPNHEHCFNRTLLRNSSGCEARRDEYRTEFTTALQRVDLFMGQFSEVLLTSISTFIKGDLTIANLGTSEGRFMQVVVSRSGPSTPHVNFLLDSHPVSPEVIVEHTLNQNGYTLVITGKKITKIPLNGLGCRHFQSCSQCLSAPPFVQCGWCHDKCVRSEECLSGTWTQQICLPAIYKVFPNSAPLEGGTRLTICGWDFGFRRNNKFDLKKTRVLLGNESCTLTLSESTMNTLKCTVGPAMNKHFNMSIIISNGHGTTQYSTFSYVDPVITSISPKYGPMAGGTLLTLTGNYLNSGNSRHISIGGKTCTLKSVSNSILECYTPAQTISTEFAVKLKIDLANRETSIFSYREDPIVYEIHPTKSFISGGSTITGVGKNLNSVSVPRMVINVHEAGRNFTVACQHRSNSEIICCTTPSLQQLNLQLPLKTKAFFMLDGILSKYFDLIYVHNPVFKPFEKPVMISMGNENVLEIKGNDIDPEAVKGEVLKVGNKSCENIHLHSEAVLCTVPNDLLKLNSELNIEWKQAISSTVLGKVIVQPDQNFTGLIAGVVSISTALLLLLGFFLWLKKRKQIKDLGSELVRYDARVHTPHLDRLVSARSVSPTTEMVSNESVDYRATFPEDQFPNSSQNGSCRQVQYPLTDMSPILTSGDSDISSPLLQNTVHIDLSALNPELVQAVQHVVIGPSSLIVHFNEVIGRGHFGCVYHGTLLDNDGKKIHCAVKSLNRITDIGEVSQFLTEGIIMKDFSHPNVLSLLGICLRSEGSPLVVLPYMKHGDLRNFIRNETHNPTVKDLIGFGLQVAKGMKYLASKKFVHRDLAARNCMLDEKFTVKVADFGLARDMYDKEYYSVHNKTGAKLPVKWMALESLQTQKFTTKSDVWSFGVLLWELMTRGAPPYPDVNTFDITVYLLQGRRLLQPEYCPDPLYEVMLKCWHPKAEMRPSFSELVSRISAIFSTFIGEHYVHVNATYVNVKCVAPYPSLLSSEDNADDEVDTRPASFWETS
AXL, sequence (P30530 26-894): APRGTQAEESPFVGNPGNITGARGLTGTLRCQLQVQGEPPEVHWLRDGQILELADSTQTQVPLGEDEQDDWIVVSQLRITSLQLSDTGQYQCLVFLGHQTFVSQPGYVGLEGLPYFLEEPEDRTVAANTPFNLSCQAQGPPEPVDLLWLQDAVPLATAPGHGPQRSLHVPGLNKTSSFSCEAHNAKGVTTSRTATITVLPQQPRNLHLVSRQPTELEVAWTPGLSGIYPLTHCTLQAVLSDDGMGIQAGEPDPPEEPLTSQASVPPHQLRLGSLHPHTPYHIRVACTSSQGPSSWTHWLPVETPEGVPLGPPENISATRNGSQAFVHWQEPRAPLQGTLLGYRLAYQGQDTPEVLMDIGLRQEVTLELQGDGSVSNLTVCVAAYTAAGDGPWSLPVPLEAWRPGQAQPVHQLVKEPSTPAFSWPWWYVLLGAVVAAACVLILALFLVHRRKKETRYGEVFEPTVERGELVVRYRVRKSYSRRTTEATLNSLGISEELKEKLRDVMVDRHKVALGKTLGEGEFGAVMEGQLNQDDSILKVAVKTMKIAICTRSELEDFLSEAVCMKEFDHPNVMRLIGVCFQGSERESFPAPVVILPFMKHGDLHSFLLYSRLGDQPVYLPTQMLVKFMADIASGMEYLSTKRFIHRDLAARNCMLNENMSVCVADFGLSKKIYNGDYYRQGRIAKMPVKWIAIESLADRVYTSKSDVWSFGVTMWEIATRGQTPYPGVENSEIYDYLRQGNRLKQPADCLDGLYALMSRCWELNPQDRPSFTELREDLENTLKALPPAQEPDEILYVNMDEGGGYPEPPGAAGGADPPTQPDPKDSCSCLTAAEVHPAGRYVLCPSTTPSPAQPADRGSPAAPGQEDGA
KDR, sequence (P35968 20-1356): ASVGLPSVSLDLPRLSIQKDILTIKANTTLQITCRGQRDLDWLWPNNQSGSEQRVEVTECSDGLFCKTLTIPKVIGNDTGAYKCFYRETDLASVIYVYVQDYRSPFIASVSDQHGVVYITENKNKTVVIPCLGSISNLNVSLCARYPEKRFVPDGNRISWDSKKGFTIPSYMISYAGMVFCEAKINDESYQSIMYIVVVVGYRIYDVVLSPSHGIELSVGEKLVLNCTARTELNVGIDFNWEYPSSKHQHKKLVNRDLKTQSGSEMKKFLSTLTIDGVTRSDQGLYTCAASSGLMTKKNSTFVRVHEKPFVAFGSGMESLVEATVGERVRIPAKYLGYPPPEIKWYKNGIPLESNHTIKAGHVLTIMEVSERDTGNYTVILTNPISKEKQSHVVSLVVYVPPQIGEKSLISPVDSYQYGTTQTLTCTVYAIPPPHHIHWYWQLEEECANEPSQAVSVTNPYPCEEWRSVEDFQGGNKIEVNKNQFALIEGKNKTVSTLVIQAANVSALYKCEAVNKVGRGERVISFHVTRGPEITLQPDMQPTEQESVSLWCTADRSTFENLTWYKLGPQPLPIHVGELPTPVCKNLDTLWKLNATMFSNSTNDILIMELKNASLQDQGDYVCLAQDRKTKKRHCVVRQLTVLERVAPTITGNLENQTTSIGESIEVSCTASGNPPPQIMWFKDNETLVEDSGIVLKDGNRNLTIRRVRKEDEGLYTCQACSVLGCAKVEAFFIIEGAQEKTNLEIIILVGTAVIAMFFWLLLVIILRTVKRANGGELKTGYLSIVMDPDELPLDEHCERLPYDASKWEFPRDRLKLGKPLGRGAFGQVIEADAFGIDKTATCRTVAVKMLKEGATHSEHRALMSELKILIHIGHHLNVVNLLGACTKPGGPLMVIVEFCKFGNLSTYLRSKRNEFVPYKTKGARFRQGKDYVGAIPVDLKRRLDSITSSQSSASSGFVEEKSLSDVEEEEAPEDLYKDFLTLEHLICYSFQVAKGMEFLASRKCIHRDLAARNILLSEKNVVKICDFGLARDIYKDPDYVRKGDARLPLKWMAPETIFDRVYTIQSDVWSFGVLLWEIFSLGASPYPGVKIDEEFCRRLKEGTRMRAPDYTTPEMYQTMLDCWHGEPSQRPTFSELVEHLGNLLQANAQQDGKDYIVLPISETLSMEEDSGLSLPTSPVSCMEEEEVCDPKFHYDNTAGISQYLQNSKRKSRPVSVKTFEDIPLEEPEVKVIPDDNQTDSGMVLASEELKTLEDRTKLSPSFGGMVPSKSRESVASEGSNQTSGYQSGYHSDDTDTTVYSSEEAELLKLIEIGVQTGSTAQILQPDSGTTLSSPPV

Consider `CNc1cc2nccc(Oc3ccc(NC(=O)C4(C(=O)Nc5ccc(F)cc5)CC4)cc3)c2cc1C(=O)O` [Compound 81, 4-[4-[[1-[(4-Fluorophenyl)carbamoyl]cyclopropane-carbonyl]amino]phenoxy]-7-(methylamino)quinoline-6-carboxylic Acid], for which the IC50 at Met, against KDR and on AXL was above 300 nM throughout.

`CO/N=C(/C)c1cc2c(Oc3ccc(NC(=O)C4(C(=O)Nc5ccc(F)cc5)CC4)cc3)ccnc2cc1OC` [Compound 36, 1-N′-(4-fluorophenyl)-1-N-[4-[7-methoxy-6-[(Z)-N-methoxy-C-methylcarbonimidoyl]quinolin-4-yl]oxyphenyl]cyclopropane-1,1-dicarboxamide]: the values for the IC50 at Met, against KDR and against AXL were 100 to 300 nM, above 300 nM and 100 to 300 nM, respectively.

As to `O=C(NOCCO)c1ccc2c(Oc3ccc(NC(=O)C4(C(=O)Nc5ccc(F)cc5)CC4)cc3)ccnc2c1` [Compound 166, 1-N′-(4-Fluorophenyl)-1-N-[4-[7-(2-hydroxyethoxycarbamoyl)-quinolin-4-yl]oxyphenyl]cyclopropane-1,1-dicarboxamide], the IC50 at Met lay within 10 to 100 nM; against KDR, 100 to 300 nM; against AXL it was 10 to 100 nM.

As to `NC(=O)c1cc2c(Oc3ccc(NC(=O)C4(C(=O)Nc5ccc(F)cc5)CC4)cc3)ccnc2cc1N` [Compound 87, 1-N-[4-(7-Amino-6-carbamoylquinolin-4-yl)oxyphenyl]-1-N′-(4-fluorophenyl)cyclopropane-1,1-dicarboxamide], the IC50 was 100 to 300 nM at Met, above 300 nM at KDR and 100 to 300 nM at AXL.

`CO/N=C/c1cc2c(Oc3ccc(NC(=O)C4(C(=O)Nc5ccc(F)cc5)CC4)cc3)ccnc2cc1OC` [Compound 193, 1-N′-(4-Fluorophenyl)-1-N-[4-[7-methoxy-6-[(E)-methoxyiminomethyl]quinolin-4-yl]oxyphenyl]cyclopropane-1,1-dicarboxamide]: the IC50 at Met fell in the range of 100 to 300 nM; on KDR it was 100 to 300 nM; against AXL, 10 to 100 nM.

With `CNC(=O)Nc1ccc2c(Oc3ccc(NC(=O)C4(C(=O)Nc5ccc(F)cc5)CC4)cc3)ccnc2c1` [Compound 281, 1-N′-(4-Fluorophenyl)-1-N-[4-[7-(methylcarbamoylamino)quinolin-4-yl]oxyphenyl]cyclopropane-1,1-dicarboxamide], the IC50 at Met fell in the range of 10 to 100 nM; against KDR, 100 to 300 nM; on AXL, 100 to 300 nM.

In the case of `COC(=O)c1cc2c(Oc3ccc(NC(=O)C4(C(=O)Nc5ccc(F)cc5)CC4)cc3)ccnc2cc1N` [Compound 90, Methyl 7-amino-4-[4-[[1-[(4-fluorophenyl)carbamoyl]-cyclopropanecarbonyl]amino]phenoxy]quinoline-6-carboxylate], the half-maximal inhibitory concentration (IC50) at Met, against KDR and on AXL was 10 to 100 nM throughout.

In the case of `CNC(=O)c1cc2c(Oc3ccc(NC(=O)C4(C(=O)Nc5ccc(C(F)(F)F)cc5)CC4)cc3F)ccnc2cc1OC` [Compound 273, 1-N′-[3-Fluoro-4-[7-methoxy-6-(methylcarbamoyl)quinolin-4-yl]oxyphenyl]-1-N-[4-(trifluoromethyl)phenyl]cyclopropane-1,1-dicarboxamide], the IC50 on Met was 100 to 300 nM; on KDR it was 10 to 100 nM; on AXL, 100 to 300 nM.

Take `CC(=O)c1ccc2c(Oc3ccc(NC(=O)C4(C(=O)Nc5ccc(F)cc5)CC4)cc3)ccnc2c1` [Compound 255, 1-N-[4-(7-Acetylquinolin-4-yl)oxyphenyl]-1-N′-(4-fluorophenyl)cyclopropane-1,1-dicarboxamide]: the values for the IC50 at Met, against KDR and on AXL were 100 to 300 nM, above 300 nM and above 300 nM, respectively.

As to `COc1cc2nccc(Oc3ccc(NC(=O)C4(C(=O)Nc5ccc(F)cc5)CC4)cc3)c2cc1-c1cn(C)cn1` [Compound 177, 1-N′-(4-Fluorophenyl)-1-N-[4-[7-methoxy-6-(1-methylimidazol-4-yl)quinolin-4-yl]oxyphenyl]cyclopropane-1,1-dicarboxamide], the IC50 on Met is 10 to 100 nM; at KDR it was at most 10 nM; on AXL it was at most 10 nM.

`COC(=O)Nc1ccc2c(Oc3ccc(NC(=O)C4(C(=O)Nc5ccc(F)cc5)CC4)cc3)ccnc2c1` [Compound 282, Methyl N-[4-[4-[[1-[(4-fluorophenyl)carbamoyl]cyclopropanecarbonyl]-amino]phenoxy]quinolin-7-yl]carbamate]: the IC50 is 100 to 300 nM on Met, above 300 nM on KDR and 100 to 300 nM on AXL.

`O=C(Nc1ccc(F)cc1)C1(C(=O)Nc2ccc(Oc3ccnc4ccc(-c5nnco5)cc34)cc2)CC1` [Compound 221, 1-N′-(4-Fluorophenyl)-1-N-[4-[6-(1,3,4-oxadiazol-2-yl)quinolin-4-yl]oxyphenyl]cyclopropane-1,1-dicarboxamide]: the IC50 fell in the range of 100 to 300 nM on Met, 100 to 300 nM on KDR and 10 to 100 nM at AXL.

Turning to `CO/N=C(\C)c1cc2c(Oc3ccc(NC(=O)C4(C(=O)Nc5ccc(F)cc5)CC4)cc3)ccnc2cc1OC` [Compound 35, 1-N′-(4-fluorophenyl)-1-N-[4-[7-methoxy-6-[(E)-N-methoxy-C-methylcarbonimidoyl]quinolin-4-yl]oxyphenyl]cyclopropane-1,1-dicarboxamide], the IC50 at Met, against KDR and against AXL was 100 to 300 nM throughout.

`NS(=O)(=O)c1ccc2nccc(Oc3ccc(NC(=O)C4(C(=O)Nc5ccc(F)cc5)CC4)cc3)c2c1` [Compound 209, 1-N′-(4-Fluorophenyl)-1-N-[4-(6-sulfamoylquinolin-4-yl)oxyphenyl]cyclopropane-1,1-dicarboxamide]: the IC50 at Met was in the range of 100 to 300 nM; against KDR, 10 to 100 nM; at AXL it was 100 to 300 nM.

As for `CNC(=O)c1cc2c(Oc3ccc(NC(=O)C4(C(=O)Nc5ccc(F)cc5)CC4)cc3)ccnc2cc1N` [Compound 88, 1-N-[4-[7-Amino-6-(methylcarbamoyl)quinolin-4-yl]oxyphenyl]-1-N′-(4-fluorophenyl)cyclopropane-1,1-dicarboxamide], the IC50 at Met was 100 to 300 nM; on KDR, above 300 nM; on AXL it was 100 to 300 nM.
